Measurements: ChEMBL document CHEMBL1201862, “PubChem BioAssay data set” (2004)
Activity calls are given as the source filed them. No stated cut-off is given here; in the data, actives have a measured EC50 and inactives only a lower limit.

Columns and labels:
[1] = molecular target: T1, Heat shock factor protein 1 (Mus musculus, UniProt P38532); assay: enhancement of HSF1-driven luciferase signal – cell-based, NIH3T3, luminescence, dose retest, confirmation (AID 435004); type: functional;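 further: stress induced by proteasome inhibitor MG132 added 30 min after compound; luciferase reporter driven by HSF1 response element in NIH3T3 cells; actives raise luminescence as potentiators of the MG132 stress response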
T1 sequence (P38532 whole entry): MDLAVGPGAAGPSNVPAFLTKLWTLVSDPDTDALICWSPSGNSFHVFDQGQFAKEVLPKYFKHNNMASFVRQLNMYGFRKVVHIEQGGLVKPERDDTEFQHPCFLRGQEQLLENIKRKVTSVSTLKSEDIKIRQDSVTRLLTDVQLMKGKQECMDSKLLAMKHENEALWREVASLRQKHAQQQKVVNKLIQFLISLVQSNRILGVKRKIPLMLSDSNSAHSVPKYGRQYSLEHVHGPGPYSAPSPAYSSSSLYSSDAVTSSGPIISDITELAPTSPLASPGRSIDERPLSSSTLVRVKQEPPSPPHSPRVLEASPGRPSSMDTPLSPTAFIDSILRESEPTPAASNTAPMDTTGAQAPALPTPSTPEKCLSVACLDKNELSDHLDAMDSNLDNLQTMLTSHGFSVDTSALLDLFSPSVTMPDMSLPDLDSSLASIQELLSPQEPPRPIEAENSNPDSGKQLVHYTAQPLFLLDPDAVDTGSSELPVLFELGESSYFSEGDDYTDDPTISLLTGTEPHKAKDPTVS

[2] = Trypanosoma cruzi growth suppression in host cells – NIH3T3 host cells, beta-gal luminescence, confirmation (AID 2044); type: functional, cell-based;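 further: intracellular parasites grown in NIH/3T3 mouse fibroblasts as host cells; luminescent beta-galactosidase reporter signal from transgenic T. cruzi replicating inside host cells; inhibitors lower the luminescence signal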
[3] = NIH3T3 cell viability loss – ATP luminescence, mouse fibroblasts, counter-screen, dose response (AID 2010); type: functional, cell-based;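 further: cells exposed to compound for about 90 hours before reading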
[4] = system: Streptococcus sp. 'group A'; assay: Streptococcus pyogenes SK(-)GAS viability under kanamycin – luminescence, BacTiterGlo, confirmation, counter-screen for streptokinase expression inhibitor project, dose response (AID 1900); type: functional, organism-based
[5] = system: Streptococcus; assay: GAS UMAA2166 growth inhibition – luminescence, BacTiterGlo, counter-screen for streptokinase expression inhibitor project, dose response (AID 1915); type: functional, organism-based;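 further: potency for reduction of bacterial viability or growth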
[6] = molecular target: T2, Streptokinase A (Streptococcus pyogenes serotype M1, UniProt P10520); assay: viability-normalized secreted streptokinase activity reduction – plasminogen activation absorbance, OD405, dose response (AID 1914); type: functional, Streptococcus pyogenes M1 GAS;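 further: secreted streptokinase activity via plasminogen activation per viability signal from cell pellet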
T2 sequence (P10520 whole entry): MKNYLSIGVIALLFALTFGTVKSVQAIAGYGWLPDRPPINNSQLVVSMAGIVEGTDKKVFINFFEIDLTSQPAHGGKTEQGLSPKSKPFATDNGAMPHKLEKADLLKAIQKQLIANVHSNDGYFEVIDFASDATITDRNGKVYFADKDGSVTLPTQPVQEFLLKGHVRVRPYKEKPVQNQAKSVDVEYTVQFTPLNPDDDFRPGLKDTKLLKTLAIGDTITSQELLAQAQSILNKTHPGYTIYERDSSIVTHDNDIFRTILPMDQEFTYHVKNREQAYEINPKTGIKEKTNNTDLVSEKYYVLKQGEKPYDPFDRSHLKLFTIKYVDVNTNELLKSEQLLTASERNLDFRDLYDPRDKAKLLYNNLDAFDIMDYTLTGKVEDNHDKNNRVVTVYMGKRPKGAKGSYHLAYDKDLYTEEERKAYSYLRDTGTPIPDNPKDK

[7] = molecular target: T3, Corticotropin-releasing factor receptor 2/Corticotropin-releasing factor-binding protein (Homo sapiens, UniProt P24387+Q13324); assay: activators of CRF receptor 2 with binding protein – uHTS hits, confirmation (AID 602473); type: functional; details: read-out: EC50_Mean
T3 sequence (Q13324 whole entry): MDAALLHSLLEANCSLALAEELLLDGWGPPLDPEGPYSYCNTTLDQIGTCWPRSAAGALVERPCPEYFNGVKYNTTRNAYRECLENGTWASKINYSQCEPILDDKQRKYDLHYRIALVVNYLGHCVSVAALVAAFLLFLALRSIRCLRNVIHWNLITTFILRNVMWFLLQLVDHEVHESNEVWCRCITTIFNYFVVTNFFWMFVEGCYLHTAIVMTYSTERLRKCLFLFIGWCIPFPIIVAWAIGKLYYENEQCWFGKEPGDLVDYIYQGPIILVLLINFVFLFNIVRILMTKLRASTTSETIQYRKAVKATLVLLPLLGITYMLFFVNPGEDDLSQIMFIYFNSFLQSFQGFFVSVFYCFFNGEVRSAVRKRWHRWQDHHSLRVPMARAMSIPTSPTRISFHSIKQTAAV
T3 sequence (P24387 whole entry): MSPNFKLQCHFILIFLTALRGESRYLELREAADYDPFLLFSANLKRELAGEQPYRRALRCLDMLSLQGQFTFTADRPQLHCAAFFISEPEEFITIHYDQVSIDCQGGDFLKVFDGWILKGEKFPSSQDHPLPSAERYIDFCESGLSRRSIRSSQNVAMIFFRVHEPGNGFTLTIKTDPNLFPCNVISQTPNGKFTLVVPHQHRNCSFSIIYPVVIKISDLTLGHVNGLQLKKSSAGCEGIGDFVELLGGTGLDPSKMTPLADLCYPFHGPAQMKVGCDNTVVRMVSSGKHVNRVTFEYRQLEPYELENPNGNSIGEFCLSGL

O=C(CSc1nc[nH]n1)c1cccc([N+](=O)[O-])c1
EC50 [1]: > 260 µM (inactive)

COc1ccc(OC)c(N/C(C)=C/C(=O)c2ccccc2)c1
EC50 [2]: 2.49 µM (active) | EC50 [3]: > 60 µM (not active)

Cc1cc(Cl)ccc1OCc1nc(-c2ccncc2)no1
EC50 [2]: 2.43 µM (active) | EC50 [3]: > 60 µM (inconclusive)

COc1ccc(-c2c[n+](-c3ccccc3)c3n2CCS3)cc1
EC50 [2]: 0.688 µM (active) | EC50 [3]: > 60 µM (not active)

CCN(CC(=O)NC(C)C)Cc1nc(O)c2c3c(sc2n1)CCC3
EC50 [1]: > 260 µM (inactive)

Cc1cccc(CN2CCCC(C(=O)c3ccc4c5c(cccc35)CC4)C2)n1 (stereo unspecified)
EC50 [4]: 15 µM (active) | EC50 [5]: > 150 µM (not active) | EC50 [6]: > 150 µM (not active)

COc1ccc(C#Cc2ccc3c(=O)c4ccccc4n(C)c3c2)cc1
EC50 [4]: 10.3 µM (active) | EC50 [5]: 102 µM (active) | EC50 [6]: 110 µM (active)

Cc1ccc(NS(=O)(=O)c2ccc(C(=O)N3CC(C)OC(C)C3)cc2)cc1 (stereo unspecified)
EC50 [7]: 8.95 µM (active)

COC(=O)c1c(C)oc2ccc(N(C(=O)Oc3ccccc3)S(=O)(=O)c3ccccc3)cc12
EC50 [1]: > 260 µM (inactive)

COc1ccc(-c2nc3scc(-c4ccccc4)n3n2)cc1
EC50 [1]: > 260 µM (inactive)

c1ccc(-c2nnc(-c3c[nH]c4ccccc34)nc2-c2ccccc2)cc1
EC50 [4]: 14.7 µM (active) | EC50 [5]: 68.7 µM (active) | EC50 [6]: 20.1 µM (active)

CC(C)C(=O)N1CCC(n2nccc2NC(=O)CCOc2ccccc2)CC1
EC50 [1]: > 260 µM (inactive)

COc1cccc(C2CC(c3cccs3)=NN2C(=O)CSc2nc(O)c3cnn(-c4ccc(F)cc4)c3n2)c1OC (stereo unspecified)
EC50 [4]: 1.63 µM (active) | EC50 [5]: 11.6 µM (active)

Clc1ccc(C2=NCCN2)cc1
EC50 [2]: 0.24 µM (active) | EC50 [3]: > 60 µM (not active)

CN(C)CCN(C(=O)c1ccc(S(=O)(=O)N(C)c2ccccc2)cc1)c1nc2cc3c(cc2s1)OCO3
EC50 [2]: 0.145 µM (active) | EC50 [3]: > 60 µM (not active)

CC12CC3(C)CC(C)(C1)CC(C(=O)NC1=NCCS1)(C2)C3
EC50 [4]: 3.33 µM (active) | EC50 [5]: > 150 µM (not active) | EC50 [6]: > 150 µM (not active)

C/C(=N\NC(=S)Nc1ccc(C)cc1)c1cccc(N)c1
EC50 [7]: > 53 µM (inactive)

OC1(C#Cc2c(-c3ccsc3)oc3ccc(N4CCOCC4)cc23)CCCCC1
EC50 [4]: 6.92 µM (active) | EC50 [5]: 15.3 µM (active) | EC50 [6]: 54.6 µM (inconclusive)

CCNC(=O)C(=O)NCc1ccncc1
EC50 [1]: > 260 µM (inactive)

Cc1ccc2nc(NCCC(=O)O)nc(-c3ccccc3)c2c1
EC50 [7]: 5.3 µM (active)

Cc1ccc(C(=O)NC(=S)N(C)C2CCCCC2)cc1Br
EC50 [4]: 2.54 µM (active) | EC50 [2]: 2.07 µM (active) | EC50 [5]: 6.98 µM (active) | EC50 [3]: 8.13 µM (active)

COc1cc(/C=C(/C#N)C(=O)c2c(C)[nH]c3ccccc23)ccc1OCC#N
EC50 [1]: > 260 µM (inactive)

Cc1cc(C)cc(C(=O)NC2C(=O)N3C(C(=O)O)=C(CSc4nnc(C)s4)CSC23)c1 (stereo unspecified)
EC50 [4]: 0.512 µM (active) | EC50 [5]: 1.62 µM (active) | EC50 [6]: > 150 µM (not active)

Cc1cnc(NC(=O)CSc2ncc(-c3ccccc3)n2Cc2ccco2)s1
EC50 [7]: 5.51 µM (active)

CC(C)n1cc(/C=N/NC(=O)COc2cccc3cccnc23)c2ccccc21
EC50 [1]: 75.1 µM (active)

FC(F)(F)c1cccc(Cn2nnnc2-c2cc(Cl)cc(Cl)c2)c1
EC50 [1]: > 260 µM (inactive)

Cc1nc2c(C(=O)NCc3ccc4c(c3)OCO4)cnn2c(C)c1Cc1ccc(F)cc1Cl
EC50 [4]: 9.62 µM (active) | EC50 [5]: > 150 µM (not active) | EC50 [6]: 42.9 µM (active)

Fc1ccc(-c2cc(C(F)(F)C(F)F)[nH]n2)cc1
EC50 [7]: 6.17 µM (active)

O=C(CSc1nnc(-c2cccs2)o1)N1CCCc2ccccc21
EC50 [1]: > 260 µM (inactive)

Cc1cc(C)c(COc2ccc(/C=N/n3c(C)nnc3S)cc2)c(C)c1
EC50 [4]: 4.01 µM (active) | EC50 [5]: 12.2 µM (active) | EC50 [6]: 12 µM (active)

O=C1NC(=O)N(Cc2ccccc2)C(=O)/C1=C/NNC(=O)c1ccccc1
EC50 [4]: 9.3 µM (active) | EC50 [5]: 16.4 µM (active) | EC50 [6]: > 150 µM (not active)

CC(=O)Nc1ccc(NC(=O)CSc2nnc(NC(=O)c3ccc(Br)o3)s2)cc1
EC50 [4]: 8.52 µM (active) | EC50 [5]: 44 µM (active) | EC50 [6]: > 150 µM (not active)

Cc1ccc(C(=N)NOC(=O)N2CCOCC2)cc1
EC50 [2]: 1.95 µM (active) | EC50 [3]: > 60 µM (not active)

NC(=O)CSC1=N/C(=C\c2ccco2)C(=O)N1c1ccc(OC(F)F)cc1
EC50 [1]: 13.7 µM (active)

CCOP(=O)(C(NC(=O)c1ccccc1Cl)=C(Cl)Cl)c1ccccc1 (stereo unspecified)
EC50 [1]: > 260 µM (inactive)

FC(F)(F)c1cccc(CNC2c3ccccc3-c3ccccc32)c1
EC50 [4]: 22.8 µM (active) | EC50 [5]: > 150 µM (not active) | EC50 [6]: 19 µM (active)

Cc1ccc2ccc(C(Nc3cccc(C(F)(F)F)c3)c3cccnc3)c(O)c2n1 (stereo unspecified)
EC50 [4]: 2.12 µM (active) | EC50 [5]: 10.7 µM (active) | EC50 [6]: > 150 µM (not active)

Cc1cccc(C)c1NC(=O)CN(C)CC(=O)Nc1sc2c(c1C(N)=O)CCC2
EC50 [4]: > 150 µM (not active) | EC50 [5]: > 150 µM (not active) | EC50 [6]: > 150 µM (not active)

CCOC(=O)CC(NC(=O)CCS(=O)(=O)c1ccc2c(c1)n(C)c(=O)c(=O)n2C)c1ccc(C)cc1 (stereo unspecified)
EC50 [4]: > 150 µM (not active) | EC50 [5]: > 150 µM (not active) | EC50 [6]: > 150 µM (not active)

c1ccc2c(c1)nc(Nc1ccc(N3CCCCC3)cc1)c1nncn12
EC50 [4]: 6.13 µM (active) | EC50 [5]: 91.3 µM (active) | EC50 [6]: > 150 µM (not active)

O=C(Nc1ccccc1C(=O)OCC(=O)c1c[nH]c2ccccc12)c1ccco1
EC50 [1]: 55.3 µM (active)

CCOC(=O)c1csc(N/N=C2\CCCc3ccccc32)n1
EC50 [4]: 9.3 µM (active) | EC50 [5]: 16 µM (active) | EC50 [6]: > 150 µM (not active)

Cn1c(O)cc(=O)nc1SCC(=O)Nc1ccc(Cl)cc1
EC50 [4]: 29.9 µM (active) | EC50 [5]: > 150 µM (not active)

COCCn1c(-c2cc(OC)c(OC)c(OC)c2)nc2oc3cc(OC)ccc3c(=O)c2c1=O
EC50 [4]: > 150 µM (not active) | EC50 [5]: > 150 µM (not active) | EC50 [6]: > 150 µM (not active)

C#CCN(N(C)c1ncc(C(F)(F)F)cc1Cl)S(=O)(=O)c1ccc2ccccc2c1
EC50 [7]: > 53 µM (inactive)

COc1ccc(C(=O)NC(=S)N2CCCCC2c2cccnc2)cc1OC (stereo unspecified)
EC50 [2]: 1.32 µM (active) | EC50 [1]: > 260 µM (inactive) | EC50 [3]: > 60 µM (not active)

COc1ccc2[nH]c(CN3CCN(CCC(C)C)C(CCO)C3)c(C)c2c1 (stereo unspecified)
EC50 [2]: 0.648 µM (active) | EC50 [3]: > 60 µM (not active)

Cc1ccc(S(=O)(=O)NC(C(=O)O)c2ccccc2)cc1 (stereo unspecified)
EC50 [7]: > 53 µM (inactive)
